Among the data in patent US20210277009A1, “PRMT5 INHIBITORS” (Merck Sharp & Dohme Corp., priority 2018, published 2021) are EC50 values, retold here.

Assay [1] has as its target T1, PRMT5-MEP50 enzyme complex (Homo sapiens, UniProt O14744).
T1 construct: 1.25 nM of Full-length (FL)-PRMT5-MEP50 enzyme complex; made in house; host or cells: baculovirus-transfected Sf21 cells
Description: PRMT5-MEP50 Enzyme Methylation Assay. Format: biochemical. The procedure: PRMT5-MEP50 biochemical assay is a direct measurement of the methylation activity of the enzyme complex on a short peptide substrate derived from the N-terminus of H4 histone. Methylation experiment is performed with recombinant PRMT5-MEP50 protein complex. The assessment of inhibitory effect of small molecules is measured by tire effectiveness of the compounds to inhibit tins reaction (EC50).
In this assay, the potency (EC50) of each compound was determined from a twenty-point (1:2 serial dilution; top compound concentration of 100000 nM) titration curve using the following outlined procedure. To each well of a white ProxiPlus 384 well-plate, 100 nL of compound (1% DMSO in final assay volume of 10 μL) was dispensed, followed by the addition of 8 μL of 1× assay buffer (50 mM Bicine pH 8.0, 1 mM DTT, 0.004% Tween20, 0.01% BSA) containing 1.25 nM of Full-length (FL)-PRMT5-MEP50 enzyme complex (recombinant proteins from baculovirus-transfected Sf21 cells: FL-PRMT5; MW=[…] and FL-MEP50; MW=38614) and 1 μL of 150 μM S-(5′-Adenosyl)-L-Methionine Chloride (SAM). Plates were sealed and placed in a 37° C. humidified chamber for a 60 minutes pre-incubation with compound. Subsequently, each reaction was initiated by the addition of 1 μL 1× assay buffer containing 750 nM biotinylated H4R3(Mel) peptide. The final reaction in each well of 10 μL consists of 1.0 nM PRMT5-MEP50, 75 nM biotinylated-peptide, and […] SAM. Methylation reactions were allowed to proceed for 150 minutes in a sealed plate at 37° C. Reactions were immediately quenched by the addition of 1 μL of 5% formic acid. Plates were then frozen and shipped to SAMDITM Tech Inc. to determine the percent conversion from H4R3(Mel) to H4R3(Me2). Dose-response curves were generated by plotting percent effect (% product conversion; Y-axis) vs. Log 10 compound concentrations (X-axis). EC50 values were determined by non-linear regression according to models for either sigmoidal (4 parameters) or biphasic (7 parameters) dose-response curves.

Assay [2] relates to symmetric dimethylation of arginine (SDMA) of PRMT5 substrates in MCF-7 cells. Description: PRMT5 Cell Target Engagement (TE) Assay. It is filed as cell-based. Particulars: treated for 3 days, nuclear SDMA by high content imaging, top concentration 10000 nM. The source says: The PRMT5 TE assay is a biomarker assay for identifying compounds that inhibit symmetric dimethylation of arginine (SDMA) of PRMT5 substrates. The following substrates have been reported for PRMT5: histone H2A and H4 R3, Histone H3 R2, Histone H3 R8, spliceosome Sm proteins, ribosomal protein RPS10, p53, FEN1, nudeoplasmin, nucleolin, EGFR and EBNA. The assay will focus on detecting symmetrically dimethylated nuclear proteins using high content imaging technology. Detection of the expression of symmetrically dimethylated nuclear proteins is through a mixture of primary rabbit monoclonal antibodies to SDMA (CST 13222), which in turn recognized by an Alexafluor 488 dye-conjugated anti-rabbit IgG secondary antibody. The IN Cell Analyzer 2200 or Opera-Phenix measures nuclear Alexafluor 488 fluorescent dye intensity that is directly related to the level of expression of symmetrically dimethylated nuclear proteins at the single cell level. Nuclear AF488 dye intensities are compared to the mean value for DMSO treated cells (MIN) to report percent of inhibition for each compound-treated well.
In this assay, the cell potency (EC50) of each compound was determined from a ten point (1:3 serial dilution; top compound concentration of 10000 nM) titration curve using the following outlined procedure. Each well of a BD falcon collagen coated black/clear bottom 384-well plate was seeded with 4000 MCF-7 cells in 30 μl media and allowed to attach for 5 h. Media is ATCC-formulated Eagle's Minimum Essential Medium, Catalog No. 30-2003. To make the complete growth medium, the following components were added to the base medium: 0.01 mg/ml human recombinant insulin; fetal bovine serum to a final concentration of 10%. Additional 30 μl of media containing 2× compounds were added to each well. Cells were treated for 3 days in 37° C. CO2 incubator. On day 3, cells were fixed with Cytofix, permeablized with 0.4% Triton-X-100/Cytofix, and washed with D-PBS without Ca/Mg. Cells were blocked with Licor Odessey blocking reagent for 1 h at room temperature, followed by incubation with anti-SDMA (1:1000) antibody at 4° C. overnight. 1° antibody was removed, followed by three washings with DPBS without Ca/Mg and 0.05% Tween20. Hoechst (5 μg/ml), Cell Mask deep stain (1:2000) and Alexa488-conjugated goat anti-rabbit IgG (2 μg/mL) was added for 1 hour at room temperature. A final washing step (three washes) was performed before sealing plate for imaging on In Cell Analyzer 2200 or Opera-Phenix. Images from analyzer were uploaded to Columbus (at WP or BOS) for image analysis. IC50 values were determined by 4 parameters robust fit of percent fluorescence units vs. (Logic) compound concentrations.

[3] abbreviates: single EC50 from 4 parameters single site sigmoidal model, or first EC50 of 7 parameters biphasic model, 1.0 nM PRMT5-MEP50, H4R3(Me1) peptide, SAM, read-out: Enzyme Methylation Assay (EC50 or EC50_1).
The mark [4] stands for this setting: second EC50 of 7 parameters biphasic model, read-out: Enzyme Methylation Assay (EC50_2).

Read-outs that look alike come from different tables or passages of the source.

T1 sequence (O14744 whole entry): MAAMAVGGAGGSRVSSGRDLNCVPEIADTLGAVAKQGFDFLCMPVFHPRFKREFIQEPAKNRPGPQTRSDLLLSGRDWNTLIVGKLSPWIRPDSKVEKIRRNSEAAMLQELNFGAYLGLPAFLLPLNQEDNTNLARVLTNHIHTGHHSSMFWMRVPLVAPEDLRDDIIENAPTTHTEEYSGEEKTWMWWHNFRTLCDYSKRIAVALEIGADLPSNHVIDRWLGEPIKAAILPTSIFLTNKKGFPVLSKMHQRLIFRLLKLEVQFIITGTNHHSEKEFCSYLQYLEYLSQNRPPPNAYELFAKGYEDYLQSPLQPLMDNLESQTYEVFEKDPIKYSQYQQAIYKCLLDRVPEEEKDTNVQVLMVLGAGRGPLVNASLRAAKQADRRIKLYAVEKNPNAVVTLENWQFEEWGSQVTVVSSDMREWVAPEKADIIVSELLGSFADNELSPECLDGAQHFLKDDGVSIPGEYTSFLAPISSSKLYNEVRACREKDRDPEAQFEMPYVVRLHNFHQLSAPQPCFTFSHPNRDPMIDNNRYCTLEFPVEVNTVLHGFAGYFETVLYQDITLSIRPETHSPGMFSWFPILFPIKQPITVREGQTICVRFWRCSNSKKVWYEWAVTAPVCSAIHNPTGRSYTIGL
T1 sequence (Q9BQA1 whole entry partner): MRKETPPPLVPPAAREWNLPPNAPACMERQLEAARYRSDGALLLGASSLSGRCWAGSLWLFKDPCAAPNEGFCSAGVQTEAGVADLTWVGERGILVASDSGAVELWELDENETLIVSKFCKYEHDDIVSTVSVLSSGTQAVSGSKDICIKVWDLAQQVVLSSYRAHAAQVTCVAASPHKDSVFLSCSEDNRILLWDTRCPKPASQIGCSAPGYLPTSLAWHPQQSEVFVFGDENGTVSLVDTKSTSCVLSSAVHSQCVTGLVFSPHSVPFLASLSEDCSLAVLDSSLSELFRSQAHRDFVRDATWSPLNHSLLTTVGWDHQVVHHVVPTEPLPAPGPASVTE

`Cc1cc2ccc(CC[C@H]3S[C@@H](n4ccc5c(C)ncnc54)[C@H](O)[C@@H]3O)cc2nc1N` (single isomer, unassigned) [Example 28]: the EC50 is 0.0007 µM in assay [1] (setting [3]) and 0.0014 µM in assay [2] (Homo sapiens, MCF7, 72 h).

Consider `Cc1cc2ccc(CC[C@@H]3S[C@@H](n4ccc5c(C)ncnc54)[C@H](O)[C@@H]3O)cc2nc1N` (single isomer, unassigned) [Example 29], for which the EC50 was determined as 0.0006 µM in assay [1] (setting [3]) and 0.0009 µM in assay [2] (Homo sapiens, MCF7, 72 h).

Turning to `Cc1ncnc2c1ccn2[C@@H]1S[C@@H](CCc2ccc3cc4c(nc3c2)NC(C)C4)[C@@H](O)[C@H]1O` (single isomer, unassigned) [Example 39, (2S,3S,4R,5R)-2-(2-((R or S)-2-methyl-2,3-dihydro-1H-pyrrolo[2,3-b]quinolin-7-yl)ethyl)-5-(4-methyl-7H-pyrrolo[2,3-d]pyrimidin-7-yl)tetrahydrothiophene-3,4-diol], the EC50 in assay [1] (setting [3]) worked out at 0.0219 µM; in assay [2], 2.44 µM.

Take `Cc1ncnc2c1ccn2[C@@H]1S[C@@H](CCc2ccc3cc4c(nc3c2)NC(C)C4)[C@@H](O)[C@H]1O` (single isomer, unassigned) [Example 40, (2S,3S,4R,5R)-2-(2-((S or R)-2-methyl-2,3-dihydro-1H-pyrrolo[2,3-b]quinolin-7-yl)ethyl)-5-(4-methyl-7H-pyrrolo[2,3-d]pyrimidin-7-yl)tetrahydrothiophene-3,4-diol]: the EC50 in assay [1] (setting [3]) is 0.0579 µM.

For the molecule `Cc1ncnc2c1ccn2[C@@H]1SC(CCc2ccc3ccc(NCC(F)F)nc3c2)[C@@H](O)[C@H]1O` (stereo in doubt) [Example 27, (2S,3S,4R,5R)-2-(2-{2-[(2,2-difluoroethyl)amino]quinolin-7-yl}ethyl)-5-(4-methyl-7H-pyrrolo[2,3-d]pyrimidin-7-yl)tetrahydrothiophene-3,4-diol], the EC50 was 0.0477 µM in assay [1] (setting [3]) and 0.055 µM in assay [2].

Consider `Nc1nc2cc(OC[C@H]3S[C@@H](n4ccc5c(N)ncnc54)[C@H](O)[C@@H]3O)ccc2cc1Br` [Example 1, (2R,3S,4R,5R)-2-(((2-amino-3-bromoquinolin-7-yl)oxy)methyl)-5-(4-amino-7H-pyrrolo[2,3-d]pyrimidin-7-yl)tetrahydrothiophene-3,4-diol], for which the EC50 in assay [1] (setting [4]) stood at 0.0767 µM; in assay [1] (setting [3]) it was 0.0003 µM; in assay [2] (Homo sapiens, MCF7, 72 h), 0.208 µM.

With `Nc1nc2cc(OC[C@H]3S[C@@H](n4ccc5c(N)ncnc54)[C@H](O)[C@@H]3O)ccc2cc1Cl` [Example 2, 7-[5-O-(2-amino-3-chloroquinolin-7-yl)-4-thio-beta-D-ribofuranosyl]-7H-pyrrolo[2,3-d]pyrimidin-4-amine], the EC50 came out at 0.2 µM in assay [1] (setting [4]); 0.0022 µM in assay [1] (setting [3]); 0.113 µM in assay [2] (Homo sapiens, MCF7, 72 h).

For the molecule `Nc1nc2cc(OC[C@H]3S[C@@H](n4ccc5c(N)ncnc54)[C@H](O)[C@@H]3O)ccc2cc1F` [Example 3, 7-[5-O-(2-amino-3-fluoroquinolin-7-yl)-4-thio-beta-D-ribofuranosyl]-7H-pyrrolo[2,3-d]pyrimidin-4-amine], the EC50 in assay [1] (setting [4]) was 0.902 µM; in assay [1] (setting [3]), 0.006 µM; in assay [2] (Homo sapiens, MCF7, 72 h), 0.596 µM.

On to `Nc1ncnc2c1ccn2[C@@H]1S[C@H](COc2ccc3ccc(NCC4CC4)nc3c2)[C@@H](O)[C@H]1O` [Example 4, 7-(5-O-{2-[(cyclopropylmethyl)amino]quinolin-7-yl}-4-thio-beta-D-ribofuranosyl)-7H-pyrrolo[2,3-d]pyrimidin-4-amine], for which the EC50 in assay [1] (setting [4]) worked out at 0.569 µM; in assay [1] (setting [3]), 0.0012 µM; in assay [2] (Homo sapiens, MCF7, 72 h), 0.0505 µM.

`Nc1nc2cc(OC[C@H]3S[C@@H](n4ccc5c(Cl)ncnc54)[C@H](O)[C@@H]3O)ccc2cc1Cl` [Example 5]: the EC50 is 0.0262 µM in assay [1] (setting [3]) and no less than 10 µM in assay [2] (Homo sapiens, MCF7, 72 h).

Consider `C[C@]1(COc2ccc3cc(Br)c(N)nc3c2)S[C@@H](n2ccc3c(Cl)ncnc32)[C@H](O)[C@@H]1O` [Example 6, (2R,3S,4R,5R)-2-(((2-amino-3-bromoquinolin-7-yl)oxy)methyl)-5-(4-chloro-7H-pyrrolo[2,3-d]pyrimidin-7-yl)-2-methyltetrahydrothiophene-3,4-diol], for which the EC50 in assay [1] (setting [3]) amounted to 0.0098 µM; in assay [2] (Homo sapiens, MCF7, 72 h) it was 1.13 µM.

`CC1(COc2ccc3cc(Br)c(N)nc3c2)SC(n2ccc3c(N)ncnc32)C(O)C1O` [Example 7, (2R,3R,4R,5R)-2-(((2-amino-3-bromoquinolin-7-yl)oxy)methyl-5-(4-amino-7H-pyrrolo[2,3-d]pyrimidin-7-yl)-2-methyltetrahydrothiophene-3,4-diol]: the EC50 in assay [1] (setting [4]) was 0.531 µM; in assay [1] (setting [3]), 0.0025 µM; in assay [2] (Homo sapiens, MCF7, 72 h) it was 0.121 µM.

With `COc1ncnc2c1ccn2[C@@H]1S[C@H](COc2ccc3ccc(NCC4CC4)nc3c2)[C@@H](O)[C@H]1O` [Example 8, (2R,3S,4R,5R)-2-(((2-((cyclopropylmethyl)amino)quinolin-7-yl)oxy)methyl)-5-(4-methoxy-7H-pyrrolo[2,3-d]pyrimidin-7-yl)tetrahydrothiophene-3,4-diol], the EC50 in assay [1] (setting [3]) is 38.3 µM; in assay [2] (Homo sapiens, MCF7, 72 h), 3.71 µM.

With `Cc1ncnc2c1ccn2[C@@H]1S[C@H](COc2ccc3ccc(NCC4CC4)nc3c2)[C@@H](O)[C@H]1O` [Example 9, (2R,3S,4R,5R)-2-(((2-((cyclopropylmethyl)amino)quinolin-7-yl)oxy)methyl)-5-(4-methyl-7H-pyrrolo[2,3-d]pyrimidin-7-yl)tetrahydrothiophene-3,4-diol], the EC50 in assay [1] (setting [4]) was 2.54 µM; in assay [1] (setting [3]), 0.014 µM; in assay [2] (Homo sapiens, MCF7, 72 h), 0.0584 µM.

As to `COc1ncnc2c1ccn2[C@@H]1S[C@H](COc2ccc3ccc(N)nc3c2)[C@@H](O)[C@H]1O` [Example 10, (2R,3S,4R,5R)-2-(((2-aminoquinolin-7-yl)oxy)methyl)-5-(4-methoxy-7H-pyrrolo[2,3-d]pyrimidin-7yl)tetrahydrothiophene-3,4-diol], the EC50 amounted to 16.2 µM in assay [1] (setting [4]); 0.0195 µM in assay [1] (setting [3]); 6.02 µM in assay [2] (Homo sapiens, MCF7, 72 h).

Take `Nc1ccc2ccc(OC[C@H]3S[C@@H](n4ccc5c(N)ncnc54)[C@H](O)[C@@H]3O)cc2n1` [Example 11, (2R,3R,4S,5R)-2-(4-amino-7H-pyrrolo[2,3-d]pyrimidin-7-yl)-5-(((2-aminoquinolin-7-yl)oxy)methyl)tetrahydrothiophene-3,4-diol]: the EC50 turned out to be 0.055 µM in assay [1] (setting [4]); 0.0007 µM in assay [1] (setting [3]); 0.0871 µM in assay [2] (Homo sapiens, MCF7, 72 h).
